Test results as given in patent US20070112000A1, “Chemical compounds” (AstraZeneca R&D Alderley, priority 2003, published 2007).

Biological target: T1, human 11βHSD1 enzyme (Homo sapiens, UniProt P28845)
T1 construct: stably transfected with a construct containing fill-length human 11βHSD1 enzyme (in pCMVHyg); expressed in transfected cells; host or cells: HeLa cells (human cervical carcinoma) stably carrying the GRE4-β-galactosidase reporter and 11βHSD1 in pCMVHyg
Experiment: HeLa GRE4-βGal/11βHSD1 cell reporter assay (cortisone to cortisol conversion, β-galactosidase readout)
Format: cell-based
Conditions: HeLa GRE4-βGal/11βHSD1 cells, cortisone 1 μM, overnight incubation
Description: HeLa cells (human cervical carcinoma derived cells) were stably transfected with a construct containing four copies of the glucocorticoid response element (GRE) linked to a beta-galactosidase reporter gene (3 kb lac Z gene derived from pSV-B-galactosidase). These cells were then further stably transfected with a construct containing fill-length human 11βHSD1 enzyme (in pCMVHyg) to create GRE4-βGal/11βHSD1 cells. The principal of the assay is as follows. Cortisone is freely taken up by the cells and is converted to cortisol by 11βHSD1 oxo-reductase activity and cortisol (but not cortisone) binds to and activates the glucocorticoid receptor. Activated glucocorticoid receptor then binds to the GRE and initiates transcription and translation of β-galactosidase. Enzyme activity can then be assayed with high sensitivity by colourimetric assay.
Cells were routinely cultured in DMEM (Invitrogen, Paisley, Renfrewshire, UK) containing 10% foetal calf serum (LabTech), 1% glutamine (Invitrogen), 1% penicillin & streptomycin (Invitrogen), 0.5 mg/ml G418 (Invitrogen) & 0.5 mg/ml hygromycin (Boehringer). Assay media was phenol red free-DMEM containing 1% glutamine, 1% penicillin & streptomycin.
Compounds (1 mM) to be tested were dissolved in dimethyl sulphoxide (DMSO) and serially diluted into assay media containing […]. […]
A cocktail (25 μl) consisting of 10× Z-buffer (600 mM Na2HPO4, 400 mM NaH2PO4.2H2O, 100 mM KCl, 10 mM MgSO4.7H2O, 500 mM, β-mercaptoethanol, pH 7.0), SDS (0.2%), chlorophenol red-β-D-galactopyranoside (5 mM, Roche Diagnostics) was added per well and plates incubated at 37° C. for 34 hours. β-Galactosidase activity was indicated by a yellow to red colour change (absorbance at 570 nm) measured using a Tecan Spectrafluor Ultra.
The calculation of median inhibitory concentration (IC50) values for the inhibitors was performed using Origin 6.0 (Microcal Software, Northampton Mass. USA). Dose response curves for each inhibitor were plotted as OD units at each inhibitor concentration with relation to a maximum signal (cortisone, no compound) and IC50 values calculated. […]

T1 sequence (P28845 whole entry): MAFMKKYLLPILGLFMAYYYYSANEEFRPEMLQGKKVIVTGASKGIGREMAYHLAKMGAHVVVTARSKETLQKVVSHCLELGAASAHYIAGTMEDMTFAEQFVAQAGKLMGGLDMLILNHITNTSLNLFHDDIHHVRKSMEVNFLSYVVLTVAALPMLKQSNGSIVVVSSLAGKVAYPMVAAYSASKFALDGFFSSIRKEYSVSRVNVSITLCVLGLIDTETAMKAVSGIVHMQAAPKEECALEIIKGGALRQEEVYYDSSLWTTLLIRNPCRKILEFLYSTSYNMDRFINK

IC50 | SMILES
206 nM | O=C(c1ccc(F)cc1)C1CCCN(C(=O)c2ccc(Cl)s2)C1 (stereo not drawn) [Example 18]
83 nM | O=C(c1ccc(F)cc1)C1CCCN(C(=O)Cc2ccc(F)cc2)C1 (stereo not drawn) [Example 17]
10 nM | CC(C)S(=O)(=O)N1CCCC(C(=O)c2ccc(F)cc2)C1 (stereo not drawn) [Example 13]
